# From patent US20100152225A1, “HYDROGENATED PYRIDO [4,3-B] INDOLES SUCH AS DIMEBON FOR TREATING CANINE COGNITIVE DYSFUNCTION SYNDROME” (priority 2006, published 2010)
# Entries after “also recorded” stand apart in the source; their conditions may differ.
# Assays:
# [1] = system: dogs; settings: dogs with CCDS; reported in FDA Consumer Magazine 2000; cited from earlier work
# [2] = system: Beagle Dogs; experiment: Curiosity Test (exploratory behavior, open-field arena); type: in vivo, Canine; settings: for rearing frequency, controls versus dose group: FIG. 10
# Protocol: (§1) Dogs were weighed prior to study initiation. Capsules containing dimebon were prepared for each dog according to weight. The following doses of dimebon were used: 2, 6 and 20 mg/kg. Technicians not otherwise involved in the study prepared the capsules. During the control phase of the study, subjects were administered empty gelatine capsules. The test and control articles were administered to the dogs PO within meatballs of moist dog food once daily. Individual subjects were administered the capsule at the same time on each treatment day.
# (§2) The design of the study consisted of four 7 day test blocks (a test block refers to the 3 day washout period combined with the 4 day treatment/testing period). The first test block was a control and no subject received treatment during those seven days. Subsequently, the study then followed a Latin-square design, in which all of the subjects were tested at all the three dose levels of the test article in a different order (see Table 3 below). To accomplish this, the twelve subjects were divided into six groups of two subjects balanced for sex and age to the extent possible.
# After completing the control test block, each group received three doses of the test article in the order prescribed for that group. For each test block, subjects received their respective treatment for the first four days. On the fourth day of each test block, subjects were tested on the curiosity test twice; the first was one hour after article administration and the second was four hours after article administration. The remaining three days were considered washout days for each test block (Table 4).
# For the curiosity test, each behavioral measure was analyzed individually using a repeated measures ANOVA with dose (control, 2, 6, and 20 mg/kg), test (first and second) as within-subject variables and order as a between-subject variable.
# This is a test of exploratory behavior, which assesses both attention to environment and locomotor activity (Siwak et al. (2001) Effect of Age and Level of Cognitive Function on Spontaneous and Exploratory Behaviors in the Beagle Dog. Learning and Memory, 8:[…].). Subjects were placed in the open-field arena for a 10-minute period. Seven objects were placed in the arena and the subjects were permitted to freely explore the room and the objects.
# The open field activity arena consisted of an empty test room (approximately 8′×10′) with strips of electrical tape applied to the floor in a grid pattern of rectangles to facilitate tracking. The floor of the test room was mopped prior to testing and between dogs to reduce olfactory cues from affecting testing. For tests conducted in the open field, the dogs were placed in the test room and their behavior was videotaped over a 10-minute period. On two of the test sessions, subjects were tested for 5 rather than 10 minutes. Accordingly, the data from those two dogs were not included in the initial analysis, which was carried out over all dose levels. However, all dogs were tested on the control and 20 mg/kg dose and a separate analysis was carried out comparing control and high dose treatments.
# The movement pattern of the dog within the test room was recorded. In addition, keyboard keys were pressed to indicate the frequency of occurrence of the various behaviors including: sniffing, urinating, grooming, jumping, rearing, inactivity and vocalization. The software also provided a total measure of distance for loco-motor activity.
# In addition to general activity, the interactions with the objects (picking-up, contacting, sniffing and urinating on the objects) were assessed and used as measures of exploratory behavior.
# [3] = system: Beagle Dogs; experiment: Observation of abnormal behavioral responses / behavioral toxicity during study; type: in vivo, Canine; settings: 2, 6 and 20 mg/kg
# From the text: All dogs received veterinary examinations prior to initiation in the study. Over the course of the study, trained personnel recorded all adverse events and contacted the responsible veterinarian or study director when necessary.
# The effect also appeared dependent on baseline activity level, the greater the baseline level the smaller the treatment effect.
# [4] = system: Beagle Dogs; experiment: Day Night Activity (Actiwatch day-night activity rhythms); type: in vivo, Canine
# Protocol: as §1, §2
# At the start of the study, an Actiwatch collar was placed on each dog and the collar remained on for the study duration of the study. All behavioral testing followed previously established protocols. […]
# To assess changes in activity linked to the treatment condition, hourly activity over a five hour period after dosing was calculated. The data were then analyzed with a repeated measures analysis of variance (ANOVA), with time post dosing (1-5 hours), treatment days (1-4 for each condition) and dose (control, 2, 6, and 20 mg/kg) as within subject variables. […] To examine day night-activity levels, day and night activity levels were calculated for each 24-hr period. The data were first analyzed with a repeated measures ANOVA, with dose (control, 2, 6, and 20 mg/kg), treatment day (1-4 for each condition), and phase (day and night) as within-subject variables. […]
# Post-dose activity patterns and twenty-four hour activity rhythms were assessed using the Actiwatch method, which detects alterations in activity and changes in phase of the activity cycle as described previously (Siwak et al. (2003) Circadian Activity Rhythms in Dogs Vary with Age and Cognitive Status. Behavioral Neuroscience, 111:813-824). Briefly, general activity patterns were monitored for 28 continuous days using the Mini-Mitter® Actiwatch-16® activity monitoring system (Mini-Mitter Co., Inc., Bend, Oreg.) adapted for dogs. […]
# The day/night activity data were analyzed with a repeated-measures ANOVA, with dose, wash-in day, and phase as within-subject variables and test order as a between-subject variable.
# [5] = system: Beagle Dogs; experiment: General Activity Test (Actiwatch post-dose activity); type: in vivo, Canine; settings: for activity as a function of dose and treatment day: FIG. 2, suggestion of a drug effect
# Protocol: as §1, §2
# At the start of the study, an Actiwatch collar was placed on each dog and the collar remained on for the study duration of the study. All behavioral testing followed previously established protocols. For behavioral tests conducted in the open field arena, data analyses were conducted using the DogAct behavioral software (CanCog Technologies Inc., Toronto, ON, Canada). Actiware-Rhythm® software was used to obtain activity counts for the day-night measure.
# The Actiwatch data were analyzed to look at both changes in activity pattern temporally linked to treatment and changes in day/night activity.
# To assess changes in activity linked to the treatment condition, hourly activity over a five hour period after dosing was calculated. The data were then analyzed with a repeated measures analysis of variance (ANOVA), with time post dosing (1-5 hours), treatment days (1-4 for each condition) and dose (control, 2, 6, and 20 mg/kg) as within subject variables. Test order served as a between subject variable in the initial analysis. To examine day night-activity levels, day and night activity levels were calculated for each 24-hr period. The data were first analyzed with a repeated measures ANOVA, with dose (control, 2, 6, and 20 mg/kg), treatment day (1-4 for each condition), and phase (day and night) as within-subject variables. Once again order served as a between-subject variable.
# Post-dose activity patterns and twenty-four hour activity rhythms were assessed using the Actiwatch method, which detects alterations in activity and changes in phase of the activity cycle as described previously (Siwak et al. (2003) Circadian Activity Rhythms in Dogs Vary with Age and Cognitive Status. Behavioral Neuroscience, 111:813-824). Briefly, general activity patterns were monitored for 28 continuous days using the Mini-Mitter® Actiwatch-16® activity monitoring system (Mini-Mitter Co., Inc., Bend, Oreg.) adapted for dogs. The Actiwatch contained an activity sensory that was programmed to provide counts of total activity at 5 minute intervals. Putting the Actiwatch on a dog's collar allowed for recording uninterrupted patterns of activity and rest.
# The first analysis of the Actiwatch data was intended to provide an overall picture of the post-dosing effect of the compound on behavioral activity. Accordingly, data for the 5-hour period following dosing was first segregated into 5 one-hour blocks. Thus, each subject's data for each treatment day consisted of 5 consecutive one-hour activity scores. The data were then analyzed with a repeated measures analysis of variance, with time post dosing (1-5 hours), treatment days (1-4 for each condition) and dose (control, 2, 6, and 20 mg/kg) as within subject variables. Test order served as between subject variables in the initial analysis. […]
# [6] = 2, 6 and 20 mg/kg, dihydrochloride
structure (smiles),measurement,setting,value
C#CCN(C)[C@H](C)Cc1ccccc1 [Anipryl®],fraction of cases in which it does not work,[1],about ⅓
"Cc1ccc2c(c1)c1c(n2CCc2ccc(C)nc2)CCN(C)C1.Cl.Cl [dimebon, 2,8-dimethyl-5-(2-(6-methyl-3-pyridyl)-ethyl)-2,3,4,5-tetrahydro-1H-pyrido(4,3-b)indole dihydrochloride]",change of rearing frequency over the two tests,[2]; 2 mg/kg,decrease in rearing frequency
same,object sniff frequency compared to control,"[2]; 2 mg/kg, p=0.085660, FIG. 14",lower occurrence of object sniffing
same,change of rearing frequency over the two tests,[2]; 6 mg/kg,rearing frequency increased over the two tests
same,change of rearing frequency over the two tests,[2]; 20 mg/kg,rearing frequency increased over the two tests
same,exploratory behavior,[2]; 20 mg/kg,increase in exploratory behavior
same,frequency of object pickup,"[2]; 20 mg/kg compared to 2 mg/kg, p=0.10445, FIG. 12",greater frequency of picking up objects
same,locomotor activity on the second curiosity test,"[2]; 20 mg/kg, 4 h after administration",increased locomotor activity
same,object contact duration compared to controls,"[2]; 20 mg/kg, especially on the second test, FIG. 13",increased contact
same,duration of action,"[2]; 20 mg/kg, manifested by locomotor activity on second curiosity test and night time activity",longest duration of action
same,change of inactivity over the two tests,"[2]; 20 mg/kg, secondary analysis control vs high dose, interaction p=0.098076, FIG. 11",decreased over the two tests
same,change of object sniff frequency over the two tests,"[2]; 20 mg/kg, secondary analysis, interaction p=0.061260, FIG. 16",object sniff frequency increased over the two tests
same,locomotor activity on first and second test,"[2]; 20 mg/kg, tests 1 h and 4 h after administration, FIG. 8",activity was increased on both tests
same,effect on most behaviors in the exploratory behavior test,"[2]; 2, 6 and 20 mg/kg",did not significantly affect most behaviors
same,exploration (summary of exploratory behavior test),[2]; [6],generally increased; also recorded: dose-dependent trend towards increased exploration
same,"rearing frequency, dose effect, secondary analysis","[2]; control vs 20 mg/kg only, p=0.086315",marginally significant effect of dose
same,"locomotor activity, dose effect (ANOVA)","[2]; control, 2, 6, 20 mg/kg",not significant
same,"urination frequency, effect of treatment","[2]; control, 2, 6, 20 mg/kg, FIG. 9",no effects of treatment were found
same,"rearing frequency, dose effect (ANOVA)","[2]; control, 2, 6, 20 mg/kg, p=0.000846",significant dose effect
same,"object contact duration, dose effect (ANOVA)","[2]; control, 2, 6, 20 mg/kg, p=0.001384",significant dose effect
same,"object sniff frequency, dose effect (ANOVA)","[2]; control, 2, 6, 20 mg/kg, p=0.056856",marginally significant effect of dose
same,"object pick-up, dose effect (ANOVA)","[2]; control, 2, 6, 20 mg/kg, p=0.079968",marginally significant effect of dose
same,"rearing frequency, controls versus dose group","[2]; high dose group, p=0.025826",controls showing significantly less rearing
same,"rearing frequency, controls versus dose group","[2]; low dose group, p=0.0258",controls showing significantly less rearing
same,behavioral toxicity,[3],nor were there other indications of behavioral toxicity
same,stereotypical behavior,[3],None of the dogs showed any stereotypical behavior
same,abnormal behavioral response,[3]; dihydrochloride,"None of these results, however, is indicative of an abnormal behavioral response; also recorded: does not cause any obvious abnormal behavioral responses"
same,ratio of day time activity to night time activity,"[4]; 2 mg/kg, FIG. 6, did not achieve statistical significance",highest
same,day:night activity ratio,[4]; 20 mg/kg,not altered
same,night time activity,[4]; 20 mg/kg,increased night time activity
same,day/night activity as a function of dose,"[4]; control, 2, 6, 20 mg/kg, did not achieve statistical significance, p=0.158556",overall dose-dependent increase in activity
same,activity at 5 hours post-dosing compared to control,"[5]; 6 mg/kg PO once daily, FIG. 1",generally higher
same,activity as a function of dose and treatment day,[5]; 6 mg/kg,increased activity
same,activity at 5 hours post-dosing compared to control,"[5]; 20 mg/kg PO once daily, FIG. 1",generally higher
same,activity as a function of dose and treatment day,[5]; 20 mg/kg,increased activity
same,behavioral activity (summary),[5]; [6],trend towards an increase in activity with an increase in dosage; also recorded: moderate increase in behavioral activity
same,total activity as a function of dose,"[5]; control, 2, 6, 20 mg/kg, FIG. 3, not statistically significant, p=0.192360",dose-dependent increase in activity
same,decrease of activity with time following treatment,"[5]; two highest dose levels, FIG. 1",the decrease is smaller
